Measured values published in BindingDB's records for patent US12138263 (Relay Therapeutics, 2024).

Molecular target: T1, Tyrosine-protein phosphatase non-receptor type 11 (Homo sapiens, UniProt Q06124)
T1 sequence (Q06124 whole entry): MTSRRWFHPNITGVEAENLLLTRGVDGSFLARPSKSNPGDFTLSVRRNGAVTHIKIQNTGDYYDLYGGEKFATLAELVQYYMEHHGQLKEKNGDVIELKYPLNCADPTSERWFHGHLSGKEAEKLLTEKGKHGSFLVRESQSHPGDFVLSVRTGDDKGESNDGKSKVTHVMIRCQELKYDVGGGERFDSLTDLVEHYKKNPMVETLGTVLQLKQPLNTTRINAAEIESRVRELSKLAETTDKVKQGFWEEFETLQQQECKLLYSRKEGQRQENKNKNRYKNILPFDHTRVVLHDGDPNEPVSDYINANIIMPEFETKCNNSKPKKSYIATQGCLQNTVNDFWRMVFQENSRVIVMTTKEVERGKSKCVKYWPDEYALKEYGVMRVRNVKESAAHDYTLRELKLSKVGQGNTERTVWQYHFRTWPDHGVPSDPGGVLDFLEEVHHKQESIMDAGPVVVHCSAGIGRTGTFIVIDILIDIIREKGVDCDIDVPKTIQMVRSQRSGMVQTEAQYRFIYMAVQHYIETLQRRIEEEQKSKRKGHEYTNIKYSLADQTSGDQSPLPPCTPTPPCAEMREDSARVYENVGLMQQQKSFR
Assay: SPH2 Allosteric Inhibition Assay and Binding

## CC1(CN)CCN(c2cnc3c(N4CCCc5c4cccc5S(=O)(=O)F)n[nH]c3n2)CC1 [US12138263, Compound 5A]
  IC50: < 1000 nM
